Test results as given in US7745495B2, “Pyridine ketones with herbicidal effect” (Syngenta Crop Protection, Inc., priority 2004, dated 2010).

How the values were obtained:
Amaranthus = assay: Pre-emergence herbicidal action; type: in vivo; conditions: rating 10=total damage, 0=no action; for Pre-emergence herbicidal action: Amaranthus: 250 g/ha, after 3 weeks
Experimental: (§1) Monocotyledonous and dicotyledonous test plants are sown in standard soil in plastic pots. […] The test plants are then grown in a greenhouse under optimum conditions. After a test duration of 3 weeks, the test is evaluated in accordance with a scale of ten ratings (10=total damage, 0=no action). Ratings of from 10 to 7 (especially from 10 to 8) indicate good to very good herbicidal action.

Abutilon [1] = assay: Pre-emergence herbicidal action; type: in vivo; conditions: rating 10=total damage, 0=no action; for Pre-emergence herbicidal action: Abutilon: 250 g/ha, after 3 weeks
Experimental: as §1

Echinochloa = assay: Pre-emergence herbicidal action; type: in vivo; conditions: rating 10=total damage, 0=no action; for Pre-emergence herbicidal action: Echinochloa: 250 g/ha, after 3 weeks
Experimental: as §1

Digitaria [2] = assay: Pre-emergence herbicidal action; type: in vivo; conditions: rating 10=total damage, 0=no action; for Pre-emergence herbicidal action: Digitaria: 250 g/ha, after 3 weeks
Experimental: as §1

Panicum [3] = assay: Pre-emergence herbicidal action; type: in vivo; conditions: rating 10=total damage, 0=no action; for Pre-emergence herbicidal action: Panicum: 250 g/ha, after 3 weeks; for Pre-emergent Herbicidal Activity: Panicum: Table B4
Experimental: as §1

Soya = assay: Pre-emergent herbicidal activity on crop plant; type: in vivo; conditions: crop plant, rating 10=total damage, 0=no action; for Pre-emergent Herbicidal Activity: Soya: Table B4; for Pre-emergent Herbicidal Activity: Soja: Table B5
Experimental: as §1
(§2) In the following Table B3, the pre-emergent herbicidal activity of compound H-14 according to the invention is compared with 4 compounds according to the prior art. All compounds are structurally identical except for the nature of the alkylene linker attached to the pyridine ring.

Corn = assay: Pre-emergent herbicidal activity on crop plant; type: in vivo; conditions: crop plant, rating 10=total damage, 0=no action; for Pre-emergent Herbicidal Activity: Corn: Table B4; for Pre-emergent Herbicidal Activity: Mais: Table B5
Experimental: as §1, §2

Chenopodium [4] = assay: Pre-emergence herbicidal action; type: in vivo; conditions: 250 g/ha; after 3 weeks; rating 10=total damage, 0=no action
Experimental: (§3) Monocotyledonous and dicotyledonous test plants are sown in standard soil in plastic pots. Immediately after sowing, the test compounds, in the form of an aqueous suspension (prepared from a 25% wettable powder (Example F3, b) according to WO 97/34485) or in the form of an emulsion (prepared from a 25% emulsifiable concentrate (Example F1, c)), are applied by spraying a concentration corresponding to 125 g or 250 g of active ingredient/ha (500 liter of water/ha). The test plants are then grown in a greenhouse under optimum conditions. After a test duration of 3 weeks, the test is evaluated in accordance with a scale of ten ratings (10=total damage, 0=no action). Ratings of from 10 to 7 (especially from 10 to 8) indicate good to very good herbicidal action.

Stellaria [5] = assay: Pre-emergence herbicidal action; type: in vivo; conditions: 250 g/ha; after 3 weeks; rating 10=total damage, 0=no action
Experimental: as §3

Xanthium = assay: Pre-emergent herbicidal activity; type: in vivo; conditions: Table B4, rating 10=total damage, 0=no action
Experimental: as §1
In the following Table B4, the pre-emergent herbicidal activity of compound H-3 according to the invention is compared with compound D according to the prior art. Both compounds are structurally identical except for the length of the alkylene linker attached to the pyridine ring.

Ipomea = assay: Post-emergence herbicidal action; type: in vivo; conditions: 250 g/ha; 4- to 6-leaf stage; after about 18 days; rating 10=total damage, 0=no action
Experimental: (§4) In a greenhouse, monocotyledonous and dicotyledonous test plants are grown in standard soil in plastic pots and at the 4- to 6-leaf stage are sprayed with an aqueous suspension of the test compounds of formula I prepared from a 25% wettable powder (Example F3, b) according to WO 97/34485) or with an emulsion of the test compounds of formula I prepared from a 25% emulsifiable concentrate (Example F1, c) according to WO 97/34485), in a concentration corresponding to 125 g or 250 g of active ingredient/ha (500 liter of water/ha). The test plants are then grown on in a greenhouse under optimum conditions. After a test duration of about 18 days, the test is evaluated in accordance with a scale of ten ratings (10=total damage, 0=no action). Ratings of from 10 to 7 (especially from 10 to 8) indicate good to very good herbicidal action.

Abutilon [6] = assay: Post-emergence herbicidal action; type: in vivo; conditions: 250 g/ha; 4- to 6-leaf stage; after about 18 days; rating 10=total damage, 0=no action
Experimental: as §4

Sinapis = assay: Post-emergence herbicidal action; type: in vivo; conditions: 250 g/ha; 4- to 6-leaf stage; after about 18 days; rating 10=total damage, 0=no action
Experimental: as §4

Chenopodium [7] = assay: Post-emergence herbicidal action; type: in vivo; conditions: 250 g/ha; 4- to 6-leaf stage; after about 18 days; rating 10=total damage, 0=no action
Experimental: as §4

Stellaria [8] = assay: Post-emergence herbicidal action; type: in vivo; conditions: 250 g/ha; 4- to 6-leaf stage; after about 18 days; rating 10=total damage, 0=no action
Experimental: as §4

Digitaria [9] = assay: Post-emergence herbicidal action; type: in vivo; conditions: 250 g/ha; 4- to 6-leaf stage; after about 18 days; rating 10=total damage, 0=no action
Experimental: as §4

Panicum [10] = assay: Post-emergence herbicidal action; type: in vivo; conditions: 250 g/ha; 4- to 6-leaf stage; after about 18 days; rating 10=total damage, 0=no action
Experimental: as §4

Setaria = assay: Post-emergence herbicidal action; type: in vivo; conditions: 250 g/ha; 4- to 6-leaf stage; after about 18 days; rating 10=total damage, 0=no action
Experimental: as §4

Brachiaria = assay: Pre-emergent herbicidal activity; type: in vivo; conditions: Table B5, rating 10=total damage, 0=no action
Experimental: as §1, §2

Scirpus = assay: Pre-emergent herbicidal activity; type: in vivo; conditions: Table B5, rating 10=total damage, 0=no action
Experimental: as §1
In the following Table B5, the pre-emergent herbicidal activity of compound H-9 according to the invention is compared with compound E according to the prior art. Both compounds are structurally identical except for the length of the alkylene linker attached to the pyridine ring.

Structure (SMILES): COCCCc1nc(C(F)F)ccc1C(=O)C1C(=O)C2CCC(C2)C1=O (stereo not drawn) [Compound H-3, 3-[6-Difluoromethyl-2-(3-methoxy-propyl)-pyridine-3-carbonyl]-bicyclo[3.2.1]octane-2,4-dione]
- Pre-emergence herbicidal action: Amaranthus (Amaranthus): 10
- Pre-emergent Herbicidal Activity: Amaranthus (Amaranthus; Table B4, 30 g/ha): 9
- Pre-emergent Herbicidal Activity: Amaranthus (Amaranthus; Table B4, 60 g/ha): 10
- Pre-emergence herbicidal action: Abutilon (Abutilon [1]): 10
- Pre-emergent Herbicidal Activity: Abutilon (Abutilon [1]; Table B4, 30 g/ha): 9
- Pre-emergent Herbicidal Activity: Abutilon (Abutilon [1]; Table B4, 60 g/ha): 10
- Pre-emergence herbicidal action: Echinochloa (Echinochloa): 10
- Pre-emergent Herbicidal Activity: Echinochloa (Echinochloa; Table B4, 30 g/ha): 10
- Pre-emergent Herbicidal Activity: Echinochloa (Echinochloa; Table B4, 60 g/ha): 10
- Pre-emergence herbicidal action: Digitaria (Digitaria [2]): 10
- Pre-emergent Herbicidal Activity: Digitaria (Digitaria [2]; Table B4, 30 g/ha): 9
- Pre-emergent Herbicidal Activity: Digitaria (Digitaria [2]; Table B4, 60 g/ha): 9
- Pre-emergence herbicidal action: Panicum (Panicum [3]): 10
- Pre-emergent Herbicidal Activity: Panicum (Panicum [3]; 30 g/ha): 10
- Pre-emergent Herbicidal Activity: Panicum (Panicum [3]; 60 g/ha): 10
- Pre-emergent Herbicidal Activity: Soya (Soya; 30 g/ha): 0
- Pre-emergent Herbicidal Activity: Soya (Soya; 60 g/ha): 0
- Pre-emergent Herbicidal Activity: Corn (Corn; 30 g/ha): 0
- Pre-emergent Herbicidal Activity: Corn (Corn; 60 g/ha): 0
- melting point: 45 to 46 °C
- Pre-emergence herbicidal action: Chenopodium (Chenopodium [4]): 10
- Pre-emergence herbicidal action: Stellaria (Stellaria [5]): 8
- Pre-emergent Herbicidal Activity: Xanthium (Xanthium; 30 g/ha): 7
- Pre-emergent Herbicidal Activity: Xanthium (Xanthium; 60 g/ha): 7
- Post-emergence herbicidal action: Ipomea (Ipomea): 8
- Post-emergence herbicidal action: Abutilon (Abutilon [6]): 9
- Post-emergence herbicidal action: Sinapis (Sinapis): 9
- Post-emergence herbicidal action: Chenopodium (Chenopodium [7]): 10
- Post-emergence herbicidal action: Stellaria (Stellaria [8]): 9
- Post-emergence herbicidal action: Digitaria (Digitaria [9]): 9
- Post-emergence herbicidal action: Panicum (Panicum [10]): 10
- Post-emergence herbicidal action: Setaria (Setaria): 9

Structure (SMILES): COCCCc1nc(C(F)(F)Cl)ccc1C(=O)C1C(=O)C2CCC(C2)C1=O (stereo not drawn) [Compound H-9]
- Pre-emergence herbicidal action: Amaranthus (Amaranthus): 9
- Pre-emergent Herbicidal Activity: Amaranthus (Amaranthus; Table B5, 30 g/ha): 8
- Pre-emergent Herbicidal Activity: Amaranthus (Amaranthus; Table B5, 60 g/ha): 8
- Pre-emergence herbicidal action: Abutilon (Abutilon [1]): 10
- Pre-emergent Herbicidal Activity: Abutilon (Abutilon [1]; Table B5, 30 g/ha): 8
- Pre-emergent Herbicidal Activity: Abutilon (Abutilon [1]; Table B5, 60 g/ha): 9
- Pre-emergence herbicidal action: Echinochloa (Echinochloa): 10
- Pre-emergent Herbicidal Activity: Echinochloa (Echinochloa; Table B5, 30 g/ha): 9
- Pre-emergent Herbicidal Activity: Echinochloa (Echinochloa; Table B5, 60 g/ha): 10
- Pre-emergence herbicidal action: Digitaria (Digitaria [2]): 10
- Pre-emergent Herbicidal Activity: Digitaria (Digitaria [2]; Table B5, 30 g/ha): 8
- Pre-emergent Herbicidal Activity: Digitaria (Digitaria [2]; Table B5, 60 g/ha): 9
- Pre-emergence herbicidal action: Panicum (Panicum [3]): 10
- Pre-emergent Herbicidal Activity: Soja (Soya; 30 g/ha): 0
- Pre-emergent Herbicidal Activity: Soja (Soya; 60 g/ha): 1
- Pre-emergent Herbicidal Activity: Mais (Corn; 30 g/ha): 0
- Pre-emergent Herbicidal Activity: Mais (Corn; 60 g/ha): 1
- Pre-emergence herbicidal action: Chenopodium (Chenopodium [4]): 9
- Pre-emergence herbicidal action: Stellaria (Stellaria [5]): 7
- Pre-emergent Herbicidal Activity: Brachiaria (Brachiaria; 30 g/ha): 9
- Pre-emergent Herbicidal Activity: Brachiaria (Brachiaria; 60 g/ha): 9
- Pre-emergent Herbicidal Activity: Scirpus (Scirpus; 30 g/ha): 10
- Pre-emergent Herbicidal Activity: Scirpus (Scirpus; 60 g/ha): 10
- Post-emergence herbicidal action: Ipomea (Ipomea): 9
- Post-emergence herbicidal action: Abutilon (Abutilon [6]): 9
- Post-emergence herbicidal action: Sinapis (Sinapis): 7
- Post-emergence herbicidal action: Chenopodium (Chenopodium [7]): 9
- Post-emergence herbicidal action: Stellaria (Stellaria [8]): 8
- Post-emergence herbicidal action: Digitaria (Digitaria [9]): 9
- Post-emergence herbicidal action: Panicum (Panicum [10]): 9
- Post-emergence herbicidal action: Setaria (Setaria): 9
